Earlier results on three compounds are cited in patent US20180256601A1, “URSODEOXYCHOLIC ACID AND BRAIN DISORDERS” (priority 2015, published 2018).

As usually defined, the Cmax is the highest concentration seen after dosing.

The conditions of data set [1]: in vivo.
The conditions of data set [2]: worldwide postmarketing and clinical experience.
For data set [3] the following is noted: post approval use.
In data set [4] the test system is PBC patients. The following applies: sixty PBC patients.
The conditions of data set [5]: in divided doses (Parry et al, 2010).
For data set [6] the following is noted: oral; 450 mg UDCA, or complex containing 426 mg UDCA.
Test in data set [7]: not given
The source holds these as a separate data set.

Data set [8] has as its system ALS patients. The following applies: 1 g twice daily; 17 ALS patients.
Data set [9] deals with cellular model of HD. As to conditions: coincubation with 3-NP.
Data set [10] has as its system prion disease. As to conditions: Cortez et al, 2015.
The subject of data set [11] is cell model of ALS. As to conditions: cell model of ALS (Vaz et al, 2015).

“Also recorded” adds a separate entry of the source.

`C[C@H](CCC(=O)O)[C@H]1CC[C@H]2[C@@H]3[C@@H](O)C[C@@H]4C[C@H](O)CC[C@]4(C)[C@H]3CC[C@]12C` [UDCA, Ursodeoxycholic Acid]: the “percentage of UDCA in the bile pool after administration of exogenous UDCA” value in data set [1] was 55 to 60%. Besides, the “frequency of common adverse reactions: abdominal discomfort, abdominal pain, alopecia, diarrhea, nausea, pruritus, rash” value in [2] was no less than 1%. For the same compound, in data set [3], the “Adverse Reactions: Musculoskeletal and connective tissue disorders” value is “Myalgia”; the “Adverse Reactions: Nervous system disorders” value was “dizziness, headache”; the “Adverse Reactions: Respiratory, thoracic and mediastinal disorders” value is recorded as “Cough”. Moreover, in data set [3] (listed as ursodiol), the “Adverse Reactions: Gastrointestinal disorders” value is recorded as “abdominal discomfort,; also recorded: abdominal pain,; also recorded: constipation, diarrhea,; also recorded: dyspepsia, nausea,; also recorded: vomiting”; the “Adverse Reactions: General disorders and administration site conditions” value is given as “malaise, peripheral; also recorded: edema, pyrexia”; the “Adverse Reactions: Immune System Disorders” value is “Drug hypersensitivity; also recorded: edema, urticaria,; also recorded: laryngeal edema”; the “Adverse Reactions: Skin and subcutaneous tissue disorder” value was “alopecia, pruritus, and rash”. Moreover, in [4], the “abdominal pain and asthenia” value is recorded as 1 patient; the anorexia was 1 patient; the dyspepsia is on record as 2 patients; the esophagitis was 1 patient. Moreover, the nausea in data set [4] is given as 3 patients. In addition, the “patients who reported adverse reactions” value in [4] (seven patients, nine adverse reactions) is given as 11.6%. For the same compound, the “dose well tolerated without significant neurotoxic effects” value in data set [5] is recorded as “up to 50 mg/kg/day”. Under “adults”, the elimination half-life was 72 to 140 h. Moreover, the “bile UDCA levels following discontinuation of therapy, as share of average steady state concentrations” value (in vivo) is listed as 5 to 10%. The “time to steady state concentrations” value (on average, from starting therapy) is no more than 3 weeks. For the same compound, the “fraction of oral dose excreted via the urine” value (oral) is reported as 1%. The “fraction of exogenous UDCA absorbed” value (oral delivery, passive diffusion by the proximal jejunum and ileum) is roughly 90%. For the same compound, in [6], the Cmax was 6100 ng/mL, the “t1/2(abs)” value was 0.9 h and the tmax was 1.38 h. Besides, the “correlation between serum concentrations 1 hour after dosing and cerebrospinal fluid concentrations 2 hours after dosing” value in [7] (18 ALS patients (Parry et al, 2010)) is “strong statistically significant correlation”. Further, the “time of serum level peak” value in [7] (after oral administration) is 30 to 50 min. Further, in data set [7] (in vivo), the blood-brain barrier crossing entry was “crosses the blood-brain barrier in a dose-dependent manner”.
With `C[C@H](CCC(=O)NCCS(=O)(=O)O)[C@H]1CC[C@H]2[C@@H]3[C@@H](O)C[C@@H]4C[C@H](O)CC[C@]4(C)[C@H]3CC[C@]12C` [TUDCA, tauroursodeoxycholic acid], the “Amyotrophic Lateral Sclerosis Functional Rating Scale Revised” value in data set [8] was “significant improvements”. Moreover, in [9], the “mitochondrial cytochrome c release and mitochondrial membrane alterations” value is “prevented”; the reduction in apoptosis is given as roughly 80%. Further, the “therapeutic effects in prion disease” value in data set [10] is “variety of therapeutic effects”.
Regarding `C[C@H](CCC(=O)NCC(=O)O)[C@H]1CC[C@H]2[C@@H]3[C@@H](O)C[C@@H]4C[C@H](O)CC[C@]4(C)[C@H]3CC[C@]12C` [GUDCA, glycoursodeoxycholic acid], in [11], the “mitochondrial dysfunction, caspase-9 activation, matrix metalloproteinase activation, nitrogen oxide (NO) generation” value is on record as “decrease”.
